Experimental data reported in US20110112135A1, “Imidazo [1,2-A] Pyridine Compounds” (priority 2007, published 2011).

Tests used:
[1] = system: ABCA1 gene; experiment: Quantitative analysis of ABCA1 gene regulation in THP-1 cells (real-time PCR); type: cell-based, human; settings: Gene regulation by LXR (Human), differentiated THP-1 cells, 18 hrs; for EC50: ABCA1 mRNA, read-out: EC50 ABCA1; for Emax: LXR agonist reference at 1.0 uM as positive control, read-out: Agonism ABCA1
Procedure: III. Quantitative Analysis of ABCA1 Gene Regulation in THP-1 Cells. The compounds of formula (I) effect on the regulation of the ABCA1 gene was evaluated using the following procedure. Materials and Methods Cell culture: The THP-1 monocytic cell line (ATCC #TIB-202) was obtained from American Type Culture Collection (Manassas, Va.) and cultured in RPMI 1640 medium (Gibco, Carlsbad, Calif.) containing 10% FBS, 2 mM L-glutamine, and 55 uM beta-Mercaptoethanol (BME). […] Louis, Mo.) for three days to induce differentiation into adherent macrophages. Differentiated THP-1 cells were treated with test compounds or ligands dissolved in DMSO (Sigma, D-8779) in culture medium lacking phorbal ester. […] Dose response effects were measured in duplicate, in the range of 0.001 to 30 micromolar concentrations and treated cells were incubated for an additional 18 hrs prior to RNA isolation. Unstimulated cells treated with vehicle were included as negative controls on each plate. […] L., J. Med. Chem. (2000), 45:1963-1966.). Results of antagonist analysis are expressed as % antagonism and IC50 (in μM). RNA isolation and quantitation: Total cellular RNA was isolated from treated cells cultured in 96-well plates using PrepStation 6100 (Applied Biosystems, Foster City, Calif.), according to the manufacturer's recommendations. RNA was resuspended in ribonuclease-free water and stored at -70° C. prior to analysis. RNA concentrations were quantitated with RiboGreen test procedure, #R-11490 (Molecular Probes, Eugene, Oreg.). Gene expression analysis: Gene-specific mRNA quantitation was performed by real-time PCR with the Perkin Elmer Corp. chemistry on an ABI Prism 7700 Sequence detection system (Applied Biosystems, Foster City, Calif.) according to the manufacturer's instructions. Samples (50-100 ng) of total RNA were assayed in duplicate or triplicate in 50 ul reactions using one-step RT-PCR and the standard curve method to estimate specific mRNA concentrations. Sequences of gene-specific primer and probe sets were designed with Primer Express Software (Applied Biosystems, Foster City, Calif.). […] Relative levels of ABCA1 mRNA are normalized using GAPDH mRNA or 18S rRNA probe/primer sets purchased commercially (Applied Biosystems, Foster City, Calif.). Statistics: Mean, standard deviation and statistical significance of duplicate evaluations of RNA samples were assessed using ANOVA, one-way analysis of variance using SAS analysis. Reagents: -GAPDH Probe and Primers-Taqman GAPDH Control Reagents 402869 or 4310884E 18S Ribosomal RNA-Taqman 18S Control Reagents 4308329 […] Qiagen Quantitect probe RT-PCR 204443.

[2] = target: T1, human LXRβ (Homo sapiens, UniProt P55055); experiment: Ligand-binding test procedure for human LXRβ (3H T0901317 tracer, flash plates); settings: biotinylated hLXRβ from E. coli extract; tracer 3H T0901317
T1 construct: biotin (biotinylated); made in house; host or cells: E. coli (crude extract)
T1 sequence (P55055 1-460): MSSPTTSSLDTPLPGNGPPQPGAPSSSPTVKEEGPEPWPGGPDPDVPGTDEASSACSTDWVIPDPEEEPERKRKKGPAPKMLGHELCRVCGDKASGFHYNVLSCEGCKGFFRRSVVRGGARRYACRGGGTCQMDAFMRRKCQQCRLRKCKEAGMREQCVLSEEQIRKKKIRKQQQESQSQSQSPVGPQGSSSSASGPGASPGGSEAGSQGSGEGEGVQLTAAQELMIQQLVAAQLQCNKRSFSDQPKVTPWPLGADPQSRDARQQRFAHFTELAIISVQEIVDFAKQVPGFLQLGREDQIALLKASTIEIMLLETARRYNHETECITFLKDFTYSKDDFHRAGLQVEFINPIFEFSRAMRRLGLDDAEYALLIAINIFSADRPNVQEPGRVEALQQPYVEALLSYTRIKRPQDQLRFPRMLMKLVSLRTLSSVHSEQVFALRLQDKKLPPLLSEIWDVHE
How it was run: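 Biotinylated hLXRβ from E. coli extract was captured on streptavidin flash plates (Bmax ~4000 cpm) at 4 °C overnight. Test ligand dilutions were mixed with 5 nM [3H]T0901317 tracer solution and incubated on the plates overnight at 4 °C; bound radioactivity was counted after washing.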

[3] = target: T2, human LXRα (Homo sapiens, UniProt Q13133); experiment: Ligand-binding test procedure for human LXRα (3H T0901317 tracer, flash plates); settings: biotinylated hLXRα from E. coli extract; tracer 3H T0901317
T2 construct: biotin (biotinylated); made in house; host or cells: E. coli (crude extract)
T2 sequence (Q13133 1-447): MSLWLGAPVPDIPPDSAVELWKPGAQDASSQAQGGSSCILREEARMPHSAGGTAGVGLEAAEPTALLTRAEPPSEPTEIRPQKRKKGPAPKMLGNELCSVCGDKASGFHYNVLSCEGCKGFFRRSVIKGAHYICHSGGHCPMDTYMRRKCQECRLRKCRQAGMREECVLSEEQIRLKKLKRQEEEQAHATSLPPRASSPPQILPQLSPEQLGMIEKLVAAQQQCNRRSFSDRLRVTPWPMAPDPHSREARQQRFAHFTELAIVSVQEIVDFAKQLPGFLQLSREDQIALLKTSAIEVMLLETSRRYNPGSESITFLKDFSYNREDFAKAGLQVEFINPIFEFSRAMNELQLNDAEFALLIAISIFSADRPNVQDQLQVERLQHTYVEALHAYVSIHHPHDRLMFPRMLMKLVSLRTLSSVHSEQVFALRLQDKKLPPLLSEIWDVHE
How it was run: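 Biotinylated hLXRα from E. coli extract (50 mM Tris) captured on streptavidin flash plates overnight at 4 °C. Compound dilution series mixed with 5 nM [3H]T0901317 (concentration before mixing), incubated overnight at 4 °C; wells aspirated, washed and remaining radioactivity counted.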

| EC50 [1] [nM] | IC50 [2] [nM] | IC50 [3] [nM] | Structure (SMILES) | Emax [1] [%] |
| --- | --- | --- | --- | --- |
| 359 | 15.4 | 64.9 | CCc1nc2c(C#N)cccn2c1-c1cccc(Oc2cccc(S(=O)(=O)N(C)Cc3ccc(OC)cc3)c2)c1 [Example 46, 3-[3-(8-cyano-2-ethylimidazo[1,2-a]pyridin-3-yl)phenoxy]-N-(4-methoxybenzyl)-N-methylbenzenesulfonamide] | 92 |
| 925 | 23 | 411 | CCc1nc2c(Cl)cccn2c1-c1cccc(Oc2cccc(S(=O)(=O)NC)c2)c1 [Example 48, 3-[3-(8-chloro-2-ethylimidazo[1,2-a]pyridin-3-yl)phenoxy]-N-methylbenzenesulfonamide] | 94 |
| 1470 | 79.6 | 1920 | CCc1nc2c(C#N)cccn2c1-c1cccc(Oc2cccc(S(=O)(=O)NC)c2)c1 [Example 51, 3-[3-(8-cyano-2-ethylimidazo[1,2-a]pyridin-3-yl)phenoxy]-N-methylbenzenesulfonamide] | 93 |
| 1640 | 19.8 | 456 | CC(C)c1nc2c(C(F)(F)F)cccn2c1-c1cccc(Oc2cccc(S(=O)(=O)CCCO)c2)c1 [Example 61, 3-[(3-{3-[2-isopropyl-8-(trifluoromethyl)imidazo[1,2-a]pyridin-3-yl]phenoxy}phenyl)sulfonyl]propan-1-ol] | 60 |
| 304 | 17.3 | 642 | CCc1nc2c(Cl)cccn2c1-c1cccc(Oc2cccc(S(C)(=O)=O)c2)c1 [Example 63, 8-chloro-2-ethyl-3-{3-[3-(methylsulfonyl)phenoxy]phenyl}imidazo[1,2-a]pyridine] | 96 |
| 640 | 15.1 | 399 | CCc1nc2c(Cl)cccn2c1-c1cccc(Oc2cccc(S(=O)(=O)CC)c2)c1 [Example 64, 8-chloro-2-ethyl-3-{3-[3-(ethylsulfonyl)phenoxy]phenyl}imidazo[1,2-a]pyridine] | 79 |
| 1290 | 16.9 | 315 | CCc1nc2c(Cl)cccn2c1-c1cccc(Oc2cccc(S(=O)(=O)C(C)C)c2)c1 [Example 65, 8-chloro-2-ethyl-3-{3-[3-(isopropylsulfonyl)phenoxy]phenyl}imidazo[1,2-a]pyridine] | 113 |
| 1620 | 9.5 | 405 | CCS(=O)(=O)c1cccc(Oc2cccc(-c3c(C(C)C)nc4c(Cl)cccn34)c2)c1 [Example 67, 8-chloro-3-{3-[3-(ethylsulfonyl)phenoxy]phenyl}-2-isopropylimidazo[1,2-a]pyridine] | 81 |
| 1260 | 7.1 | 406 | CC(C)c1nc2c(Cl)cccn2c1-c1cccc(Oc2cccc(S(=O)(=O)C(C)C)c2)c1 [Example 68, 8-chloro-2-isopropyl-3-{3-[3-(isopropylsulfonyl)phenoxy]phenyl}imidazo[1,2-a]pyridine] | 93 |
| 1260 | 107 | 4670 | CCc1nc2c(C#N)cccn2c1-c1cccc(Oc2cccc(S(=O)(=O)CC)c2)c1 [Example 70, 2-ethyl-3-{3-[3-(ethylsulfonyl)phenoxy]phenyl}imidazo[1,2-a]pyridine-8-carbonitrile] | 95 |
| 1940 | 37.2 | 2430 | CCc1nc2c(C#N)cccn2c1-c1cccc(Oc2cccc(S(=O)(=O)C(C)C)c2)c1 [Example 71, 2-ethyl-3-{3-[3-(isopropylsulfonyl)phenoxy]phenyl}imidazo[1,2-a]pyridine-8-carbonitrile] | 96 |
| 2040 | 36.5 | 1880 | CCS(=O)(=O)c1cccc(Oc2cccc(-c3c(C(C)C)nc4c(C#N)cccn34)c2)c1 [Example 73, 3-{3-[3-(ethylsulfonyl)phenoxy]phenyl}-2-isopropylimidazo[1,2-a]pyridine-8-carbonitrile] | 82 |
| 560 | 24 | 1260 | CC(C)c1nc2c(C#N)cccn2c1-c1cccc(Oc2cccc(S(=O)(=O)C(C)C)c2)c1 [Example 74, 2-isopropyl-3-{3-[3-(isopropylsulfonyl)phenoxy]phenyl}imidazo[1,2-a]pyridine-8-carbonitrile] | 97 |
| 1460 | 9 | 167 | CC(C)(C)c1nc2c(C(F)(F)F)cccn2c1-c1cccc(Oc2cccc(S(=O)(=O)CCCO)c2)c1 [Example 78, 3-[(3-{3-[2-tert-butyl-8-(trifluoromethyl)imidazo[1,2-a]pyridin-3-yl]phenoxy}phenyl)sulfonyl]propan-1-ol] | 92 |
| 285 | 23.7 | 745 | CCS(=O)(=O)c1cccc(Oc2cccc(-c3c(C(C)(C)C)nc4c(C#N)cccn34)c2)c1 [Example 79, 2-tert-butyl-3-{3-[3-(ethylsulfonyl)phenoxy]phenyl}imidazo[1,2-a]pyridine-8-carbonitrile] | 60 |
| 290 | 11.5 | 309 | CC(C)c1nc2c(C#N)cccn2c1-c1cc(Oc2cccc(S(C)(=O)=O)c2)ccc1Cl [Example 82, 3-{2-chloro-5-[3-(methylsulfonyl)phenoxy]phenyl}-2-isopropylimidazo[1,2-a]pyridine-8-carbonitrile] | 70 |
| 260 | 6.8 | 218 | CCS(=O)(=O)c1cccc(Oc2ccc(Cl)c(-c3c(C(C)C)nc4c(C#N)cccn34)c2)c1 [Example 83, 3-{2-chloro-5-[3-(ethylsulfonyl)phenoxy]phenyl}-2-isopropylimidazo[1,2-a]pyridine-8-carbonitrile] | 76 |
| 375 | 8.5 | 276 | CC(C)c1nc2c(C#N)cccn2c1-c1cc(Oc2cccc(S(=O)(=O)C(C)C)c2)ccc1Cl [Example 84, 3-{2-chloro-5-[3-(isopropylsulfonyl)phenoxy]phenyl}-2-isopropylimidazo[1,2-a]pyridine-8-carbonitrile] | 70 |
